# Biological target: T1, PIP4K2C (Homo sapiens, UniProt Q8TBX8)
# T1 sequence (Q8TBX8 1-421): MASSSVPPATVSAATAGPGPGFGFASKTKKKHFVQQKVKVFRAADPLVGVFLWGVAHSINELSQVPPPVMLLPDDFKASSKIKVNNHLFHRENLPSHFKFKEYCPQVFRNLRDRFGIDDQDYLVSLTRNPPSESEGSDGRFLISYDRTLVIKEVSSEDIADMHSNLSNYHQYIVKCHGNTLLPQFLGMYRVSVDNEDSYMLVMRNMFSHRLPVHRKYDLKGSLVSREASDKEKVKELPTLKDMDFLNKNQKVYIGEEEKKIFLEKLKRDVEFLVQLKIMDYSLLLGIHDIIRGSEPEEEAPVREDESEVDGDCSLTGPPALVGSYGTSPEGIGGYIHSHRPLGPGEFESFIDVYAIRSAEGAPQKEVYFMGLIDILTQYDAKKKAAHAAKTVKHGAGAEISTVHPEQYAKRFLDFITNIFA
# Assay: HiBiT PIP4K2C degradation assay in MOLT-4 cells (endogenous PIP4K2C C-terminally tagged with HiBiT)
# Type: cell-based
# Design: untagged in primary human PBMCs and monocyte-derived dendritic cells
# Conditions: 6 hours of incubation time, rather than 24 hours; MOLT-4, top concentration 10 micromolar; read-out: HiBIT-degradation MOLT4 PIP4k2C DC50 (6 hours, marked *)
# How it was run: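 MOLT-4 knock-in line, HiBiT on PIP4K2C C-terminus; 22,500 cells/well; 10-pt 3-fold titration from 10 micromolar, n=2; 24 h or 6 h, 37 C, 5% CO2; Nano-Glo HiBiT lytic luminescence; DC50 via Hill equation.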
row,SMILES,DC50 [nM]
1,"O=C1CCC(Nc2ccc(C3CCN([C@H]4CC[C@H](NC(=O)[C@H]5CC[C@H](Nc6ncc(F)c(-c7cccc(N8CCOCC8=O)c7)n6)CC5)CC4)CC3)c(F)c2)C(=O)N1 (stereo partly drawn) [Compound 547, trans-N-(trans-4-(4-(4-((2,6-dioxopiperidin-3-yl)amino)-2-fluorophenyl)piperidin-1-yl)cyclohexyl)-4-((5-fluoro-4-(3-(3-oxomorpholino)phenyl)pyrimidin-2-yl)amino)cyclohexane-1-carboxamide]",< 500
2,"O=C1CCC(Nc2ccc(C3CCN([C@H]4CC[C@H](NC(=O)[C@H]5CC[C@H](Nc6ncc(F)c(-c7ccnc(C8(O)CCC8)c7)n6)CC5)CC4)CC3)c(F)c2)C(=O)N1 (stereo partly drawn) [Compound 548, trans-N-(trans-4-(4-(4-((2,6-dioxopiperidin-3-yl)amino)-2-fluorophenyl)piperidin-1-yl)cyclohexyl)-4-((5-fluoro-4-(2-(1-hydroxycyclobutyl)pyridin-4-yl)pyrimidin-2-yl)amino)cyclohexane-1-carboxamide]",< 500
3,"O=C1CCC(Nc2ccc(C3CCN([C@H]4CC[C@H](NC(=O)[C@H]5CC[C@H](Nc6ncc(F)c(-c7ccnc(N8CCCCC8=O)c7)n6)CC5)CC4)CC3)c(F)c2)C(=O)N1 (stereo partly drawn) [Compound 549, trans-N-(trans-4-(4-(4-((2,6-dioxopiperidin-3-yl)amino)-2-fluorophenyl)piperidin-1-yl)cyclohexyl)-4-((5-fluoro-4-(2-(2-oxopiperidin-1-yl)pyridin-4-yl)pyrimidin-2-yl)amino)cyclohexane-1-carboxamide]",< 500
4,"O=C1CCC(Nc2ccc(C3CCN([C@H]4CC[C@H](NC(=O)[C@H]5CC[C@H](Nc6ncc(F)c(-c7ccnc(N8CCCOC8=O)c7)n6)CC5)CC4)CC3)c(F)c2)C(=O)N1 (stereo partly drawn) [Compound 550, trans-N-((trans)-4-(4-(4-((2,6-dioxopiperidin-3-yl)amino)-2-fluorophenyl)piperidin-1-yl)cyclohexyl)-4-((5-fluoro-4-(2-(2-oxo-1,3-oxazinan-3-yl)pyridin-4-yl)pyrimidin-2-yl)amino)cyclohexane-1-carboxamide]",< 500
5,"Cc1ccc(=O)n(-c2cccc(-c3nc(N[C@H]4CC[C@H](C(=O)N[C@H]5CC[C@H](N6CCC(c7ccc(NC8CCC(=O)NC8=O)cc7F)CC6)CC5)CC4)ncc3F)c2)c1 (stereo partly drawn) [Compound 551, trans-N-(trans-4-(4-(4-((2,6-dioxopiperidin-3-yl)amino)-2-fluorophenyl)piperidin-1-yl)cyclohexyl)-4-((5-fluoro-4-(3-(5-methyl-2-oxopyridin-1 (2H)-yl)phenyl)pyrimidin-2-yl)amino)cyclohexane-1-carboxamide]",< 500
6,"O=C1CCC(Nc2ccc(C3CCN(CC4CCN(C(=O)[C@H]5CC[C@H](Nc6ncc(F)c(-c7cccc(N8CCOCC8=O)c7)n6)CC5)CC4)CC3)c(F)c2)C(=O)N1 (stereo partly drawn) [Compound 552, trans-3-((3-fluoro-4-(1-((1-(4-((5-fluoro-4-(3-(3-oxomorpholino)phenyl)pyrimidin-2-yl)amino)cyclohexane-1-carbonyl)piperidin-4-yl)methyl)piperidin-4-yl)phenyl)amino)piperidine-2,6-dione]",< 500
7,"O=C1CCC(Nc2ccc(N3CCN(CC4CCN(C(=O)[C@H]5CC[C@H](Nc6ncc(F)c(-c7cccc(N8CCOCC8=O)c7)n6)CC5)CC4)CC3)c(F)c2)C(=O)N1 (stereo partly drawn) [Compound 553, trans-3-((3-fluoro-4-(4-((1-(4-((5-fluoro-4-(3-(3-oxomorpholino)phenyl)pyrimidin-2-yl)amino)cyclohexane-1-carbonyl)piperidin-4-yl)methyl)piperazin-1-yl)phenyl)amino)piperidine-2,6-dione]",< 500
8,"O=C1CCC(Nc2ccc(C3CCN(CC4CCN(C(=O)[C@H]5CC[C@H](Nc6ncc(F)c(-c7cccc(C8CC8)c7)n6)CC5)CC4)CC3)c(F)c2)C(=O)N1 (stereo partly drawn) [Compound 554, trans-3-((4-(1-((1-(4-((4-(3-cyclopropylphenyl)-5-fluoropyrimidin-2-yl)amino)cyclohexane-1-carbonyl)piperidin-4-yl)methyl)piperidin-4-yl)-3-fluorophenyl)amino)piperidine-2,6-dione]",< 500
9,"O=C1CCC(Nc2ccc(N3CCN(CC4CCN(C(=O)[C@H]5CC[C@H](Nc6ncc(F)c(-c7cccc(C8CC8)c7)n6)CC5)CC4)CC3)c(F)c2)C(=O)N1 (stereo partly drawn) [Compound 555, trans-3-[4-[4-[[1-[4-[[4-(3-cyclopropylphenyl)-5-fluoro-pyrimidin-2-yl]amino]cyclohexanecarbonyl]-4-piperidyl]methyl]piperazin-1-yl]-3-fluoro-anilino]piperidine-2,6-dione]",< 500
10,"O=C1CCC(Nc2ccc(C3CCN([C@H]4CC[C@H](C(=O)N[C@H]5CC[C@H](Nc6ncc(F)c(-c7cccc(N8CCCCC8)c7)n6)CC5)CC4)CC3)c(F)c2)C(=O)N1 (stereo partly drawn) [Compound 556, trans-(1r,4R)-4-(4-(4-((2,6-dioxopiperidin-3-yl)amino)-2-fluorophenyl)piperidin-1-yl)-N-((1r,4R)-4-((5-fluoro-4-(3-(piperidin-1-yl)phenyl)pyrimidin-2-yl)amino)cyclohexyl)cyclohexane-1-carboxamide]",< 500
11,"O=C1CCC(Nc2ccc(N3CCN([C@H]4CC[C@H](NC(=O)[C@H]5CC[C@H](Nc6ncc(F)c(-c7cccc(C8CC8)c7)n6)CC5)CC4)CC3)c(F)c2)C(=O)N1 (stereo partly drawn) [Compound 557, trans-(1r,4R)-4-((4-(3-cyclopropylphenyl)-5-fluoropyrimidin-2-yl)amino)-N-((1r,4R)-4-(4-(4-((2,6-dioxopiperidin-3-yl)amino)-2-fluorophenyl)piperazin-1-yl)cyclohexyl)cyclohexane-1-carboxamide]",< 500
12,"O=C1CCC(Nc2ccc(C3CCN([C@H]4CC[C@H](C(=O)N[C@H]5CC[C@H](Nc6ncc(F)c(-c7cccc(C8CC8)c7)n6)CC5)CC4)CC3)c(F)c2)C(=O)N1 (stereo partly drawn) [Compound 558, trans-(1r,4R)—N-((1r,4R)-4-((4-(3-cyclopropylphenyl)-5-fluoropyrimidin-2-yl)amino)cyclohexyl)-4-(4-(4-((2,6-dioxopiperidin-3-yl)amino)-2-fluorophenyl)piperidin-1-yl)cyclohexane-1-carboxamide]",< 500
13,"O=C1CCC(Nc2ccc(N3CCN([C@H]4CC[C@H](C(=O)N[C@H]5CC[C@H](Nc6ncc(F)c(-c7cccc(C8CC8)c7)n6)CC5)CC4)CC3)c(F)c2)C(=O)N1 (stereo partly drawn) [Compound 559, trans-N-(trans-4-((4-(3-cyclopropylphenyl)-5-fluoropyrimidin-2-yl)amino)cyclohexyl)-4-(4-(4-((2,6-dioxopiperidin-3-yl)amino)-2-fluorophenyl)piperazin-1-yl)cyclohexane-1-carboxamide]",< 500
14,"O=C1CCC(Nc2ccc(N3CCN(C[C@H]4CC[C@H](CC(=O)N[C@H]5CC[C@H](Nc6ncc(F)c(-c7cccc(N8CCCCC8=O)c7)n6)CC5)CC4)CC3)c(F)c2)C(=O)N1 (stereo partly drawn) [Compound 560, trans-2-((1r,4R)-4-((4-(4-((2,6-dioxopiperidin-3-yl)amino)-2-fluorophenyl)piperazin-1-yl)methyl)cyclohexyl)-N-((1r,4R)-4-((5-fluoro-4-(3-(2-oxopiperidin-1-yl)phenyl)pyrimidin-2-yl)amino)cyclohexyl)acetamide]",< 500
15,"O=C1CCC(Nc2ccc(N3CCN(C[C@H]4CC[C@H](CC(=O)N[C@H]5CC[C@H](Nc6ncc(F)c(-c7cccc(N8CCCOC8=O)c7)n6)CC5)CC4)CC3)c(F)c2)C(=O)N1 (stereo partly drawn) [Compound 561, trans-2-((1r,4R)-4-((4-(4-((2,6-dioxopiperidin-3-yl)amino)-2-fluorophenyl)piperazin-1-yl)methyl)cyclohexyl)-N-((1r,4R)-4-((5-fluoro-4-(3-(2-oxo-1,3-oxazinan-3-yl)phenyl)pyrimidin-2-yl)amino)cyclohexyl)acetamide]",< 500
16,"O=C1CCC(Nc2ccc(N3CCN(C[C@H]4CC[C@H](CC(=O)N[C@H]5CC[C@H](Nc6ncc(F)c(-c7cccc(N8CCOCC8=O)c7)n6)CC5)CC4)CC3)c(F)c2)C(=O)N1 (stereo partly drawn) [Compound 562, trans-2-((1r,4R)-4-((4-(4-((2,6-dioxopiperidin-3-yl)amino)-2-fluorophenyl)piperazin-1-yl)methyl)cyclohexyl)-N-((1r,4R)-4-((5-fluoro-4-(3-(3-oxomorpholino)phenyl)pyrimidin-2-yl)amino)cyclohexyl)acetamide]",< 500
17,"O=C1CCC(Nc2ccc(C3CCN([C@H]4CC[C@H](NC(=O)[C@H]5CC[C@H](Nc6ncc(F)c(-c7cccc(N8CCCOC8=O)c7)n6)CC5)CC4)CC3)c(F)c2)C(=O)N1 (stereo partly drawn) [Compound 563, trans-N-(trans-4-(4-(4-((2,6-dioxopiperidin-3-yl)amino)-2-fluorophenyl)piperidin-1-yl)cyclohexyl)-4-((5-fluoro-4-(3-(2-oxo-1,3-oxazinan-3-yl)phenyl)pyrimidin-2-yl)amino)cyclohexane-1-carboxamide]",< 500
18,"O=C1CCC(Nc2ccc(N3CCN([C@H]4CC[C@H](NC(=O)[C@H]5CC[C@H](Nc6ncc(F)c(-c7cccc(N8CCCCC8=O)c7)n6)CC5)CC4)CC3)c(F)c2)C(=O)N1 (stereo partly drawn) [Compound 564, (1r,4R)—N-((1r,4R)-4-(4-(4-((2,6-dioxopiperidin-3-yl)amino)-2-fluorophenyl)piperazin-1-yl)cyclohexyl)-4-((5-fluoro-4-(3-(2-oxopiperidin-1-yl)phenyl)pyrimidin-2-yl)amino)cyclohexane-1-carboxamide]",< 500
